In brackets after ≈: the same amount, converted by molar mass. A value given as a limit tells only on which side of the number the result lay.

As a reminder, the MIC is the smallest concentration in the dilution series that meets the test's criterion for growth inhibition. A low value points to greater potency.

For the assay, the system named is Mycobacterium tuberculosis. The assay can be described thus: Antimycobacterial activity against isoniazid-resistant Mycobacterium tuberculosis by agar dilution method. The class given is functional.
As to `COc1cc2c(cc1OC)C(=O)C(C(=O)c1c(Cl)cccc1Cl)C2` (stereo not drawn), the lowest concentration to inhibit growth (MIC) was 4.96 µM (≈ 1.81 µg/mL).

As for `COc1cc2c(cc1OC)C(=O)C(C(=O)c1cccc([N+](=O)[O-])c1)C2` (stereo not drawn), the MIC was found to be 8.72 µM (≈ 2.98 µg/mL).

As for `COc1cc2c(cc1OC)C(=O)C(C(=O)c1ccc(Br)cc1)C2` (stereo not drawn), 11.7 µM (≈ 4.41 µg/mL) was the least that counted as inhibitory (MIC).

`COc1cc2c(cc1OC)C(=O)C(C(=O)c1ccc(C#N)cc1)C2` (stereo not drawn) registered an MIC of more than 6.25 µM.

Regarding `COc1cc2c(cc1OC)C(=O)C(C(=O)c1ccc(N(C)C)cc1)C2` (stereo not drawn), the MIC came to 8.78 µM (≈ 2.98 µg/mL).

The compound `COc1ccc(C(=O)C2Cc3cc(OC)c(OC)cc3C2=O)cc1` (stereo not drawn) displayed an MIC of more than 6.25 µM.

Turning to `COc1cc2c(cc1OC)C(=O)C(C(=O)c1ccc(Cl)cc1)C2` (stereo not drawn), the MIC turned out to be 8.2 µM (≈ 2.71 µg/mL).

Turning to `COc1cc2c(cc1OC)C(=O)C(C(=O)c1ccccc1)C2` (stereo not drawn), the MIC came to 11.6 µM (≈ 3.43 µg/mL).

Compound `COc1ccc(C(=O)C2Cc3cc(OC)c(OC)cc3C2=O)cc1OC` (stereo not drawn) yielded an MIC of more than 6.25 µM.

For the compound `COc1cc2c(cc1OC)C(=O)C(C(=O)c1cc(OC)c(OC)c(OC)c1)C2` (stereo not drawn), the MIC was more than 6.25 µM.

Compound `COc1cc2c(cc1OC)C(=O)C(C(=O)c1ccc(F)cc1)C2` (stereo not drawn) came in with an MIC of 0.1 µM (≈ 0.0314 µg/mL).

The compound `COc1cc2c(cc1OC)C(=O)C(C(=O)c1ccccc1Cl)C2` (stereo not drawn) gave an MIC of 3.72 µM (≈ 1.23 µg/mL).

`NNC(=O)c1ccncc1` [ISONIAZID] had an MIC of 11.6 µM (≈ 1.59 µg/mL).

For the origin of these results see ChEMBL document CHEMBL1153711, “Synthesis and antimycobacterial evaluation of novel 5,6-dimethoxy-1-oxo-2,5-dihydro-1H-2-indenyl-5,4-substituted phenyl methanone analogues” (Bioorg Med Chem Lett, 2009).
